From patent publication US7416876B2, “N-carbobenzyloxy (N-CBZ)-deprotecting enzyme” (Bristol-Meyers Squibb Company, priority 2001, dated 2008) come the findings set out here.

The test system of data set [1] is recombinant N-CBZ-deprotecting enzyme. As to the kind of experiment: Deprotection with recombinant enzyme (cell extract from E. coli BL21 (DE3)(pBMS2000-cbz)). The data set is classed as biochemical, Sphingomonas paucimobilis. To be noted: 0.5 mg substrate, 0.5 ml cell extract, 28° C., 1 hr, HPLC. Here is the method: The reaction contained 0.5 mg of CBZ-L-phe and 0.5 ml of cell extract from E. coli BL21 (DE3)(pBMS2000-cbz) that expressed the deprotecting enzyme. Preparation of cell extract was as follows: 2 g of recombinant cells were suspended in 10 mL buffer A (50 mM phosphate buffer, pH 7.5, 1 mM EDTA), sonicated for 2 minutes (20 seconds pulse on and 30 seconds pulse off) using a model 550 Sonic Dismembrator from Misonix Inc., Farmingdale, N.Y. The disintegrated cells were centrifuged for 15 min at 8000 rpm at 4° C. and the resulting supernatant, referred to as a cell extract, was used for these studies. The reactions were carried out in a culture tube at 28° C. After 1 hr, samples were quenched with 1 ml of acetonitrile and analyzed by HPLC (described earlier).

Another data set has as its system CBZ-deprotecting enzyme. As to the kind of experiment: Deprotection of CBZ-containing compounds with purified CBZ-deprotecting enzyme. The format is biochemical, Sphingomonas paucimobilis. To be noted: for % Conversion: purified enzyme. Here is the method:
Compound A or CBZ-phenylalanine at 0.5mg was incubated with 0.4 mL of cell extract/fractions in 50 mM phosphate buffer, pH 7 at 45° C. for 18 hours. The reaction is stopped by the addition 1 ml of 50% acetonitrile containing 0.4% TFA. The samples were filtered and analyzed by HPLC for product and starting material. All the purification steps were carried out at room temperature. The purification of the enzyme was carried out using CBZ-L-phenylalanine as the substrate. The cell extract, prepared as above, was batch adsorbed with DEAE-cellulose (pre-equilibrated with buffer A) for 2 hours. The follow-through, which contained the active enzyme, was precipitated with ammonium sulfate (516 g/L) with constant stirring for 2 hours. The resulting precipitate obtained by centrifugation (15,000 rpm at 4° C.) was solubilized in buffer A containing 1M ammonium sulfate, loaded on to phenylsepharose (20 mL column which was pre-equlibriaiated with buffer A containing 1M ammonium sulfate). The column was sequentially washed with the buffer A containing 1M ammonium sulfate, 0.5M ammonium sulfate and 0.2M ammonium sulfate. Finally, the enzyme was eluted with buffer A. The fractions containing active enzyme were pooled (30 mL) and concentrated with Amicon PM-10 membrane (8 mL). The enzyme was then loaded on to S-200 gel-filtration column (400 mL column). The enzyme was eluted with buffer A with a flow rate of 0.8 mL/min. With these steps the enzyme was purified more than 150-fold with a specific activity of 13.9 units/mg protein (table 3). The unit is defined as μmole of product formed/min/mg of protein. The enzyme is a […] protein with a molecular weight of 154,000 daltons with a subunit molecular weight of 45,000 daltons, as determined by SDS-PAGE. The purified enzyme prepared as described in this section has been used to deprotect CBZ-containing compounds as shown in table 4.

The subject of data set [2] is Sphingomonas paucimobilis. Nature of the data set: Biotransformation (CBZ deprotection) using whole cells. The data set is classed as cell-based. To be noted: whole cells grown in medium B with 25 mg substrate, 28° C., 48 hours, HPLC. The procedure:
In this process, the Sphingomonas paucimobilis was grown in 25 mL of medium B containing 25 mg of substrate (Compound A or CBZ-L-Phenylalanine) in a 250-mL flask. The flask was incubated at 28° C. and 250 rpm on a shaker. After 48 hours of biotransformation, the cells were removed by centrifugation. The supernatant containing the product [4S-(4α,7α,10aβ)]-Octahydro-5-oxo-4-amino-7H-pyrido-[2,1-b] [1,3]thiazepine-7-carboxylic acid, methyl ester (Compound B) or L-Phenylalanine was analyzed by HPLC.
(§1) HPLC analysis was performed using a Hewlett-Packard (HP) 1090 instrument with a Vydac C-18 reverse phase column. The mobile phase solvent A containing 0.1% trifluoroacetic acid (TFA) in water and solvent B containing 0.1% TFA in 70% acetonitrile: 30% water. The following gradient of solvent A and B was used for the separation of substrates and products:
(§2) 0-15 min: 50% B,15-25 min: 100% B, 25-26 min: 0% B, and 26-30 min: 0% B. The flow rate was 1 mL/min. The column temperature was ambient, and the detection wavelength was at 215 nm. Under these conditions, the retention times for Compound A, Compound B, CBZ-L-Phenylalanine and L-Phenylalanine are 15.48 min., 7.28 min., 16.99 min. and 7.35 min., respectively. All other CBZ-containing compounds were also analyzed using these conditions.

Data set [3] deals with CBZ-deprotecting enzyme (cell extracts of Sphingomonas paucimobilis ATCC 202027). Nature of the data set: CBZ-deprotection using cell extract. The format is biochemical. The conditions noted are these: 42° C., 18-20 hours, HPLC. The procedure: as §1, §2
Preparation of cell extracts were carried out at 4-7° C. Cells were washed with 50 mM potassium phosphate buffer, pH 7.0, and the washed cells (100 g) were suspended in 500 mL of buffer A (50 mM phosphate buffer, pH 7.0 containing 10% glycerol, and 2 mM DTT). To the cell suspensions, 1 mM phenylmethylsulfonyl fluoride (PMSF) solution in isopropanol was added. Cell suspensions (20% W/V, wet cells) were passed through a Microfluidizer (Microfluidics, Inc) at 12,000 psi (two passages) and disintegrated cells were centrifuged at 25,000×g for 30 min at 4° C. The supernatant solution obtained after centrifugation is referred to as cell extract.
The cell extracts was used in deprotecting the CBZ-group from various compounds. It was useful in deprotecting CBZ-groups in various processes. Various D and L-CBZ-protected amino acids were incubated with the cell extract at 42° C. for 18 -20 hours. The reactions were stopped by addition of 2 volumes of 50% acetonitrile containing 0.4% trifluro acetic acid (TFA). The results shown in table 2 indicate that the enzyme is specific in hydrolyzing the CBZ-group from CBZ-protected L-amino acids.

Regarding `O=C(N[C@@H](Cc1ccccc1)C(=O)O)OCc1ccccc1` [CBZ-L-Phenylalanine, N-α-CBZ-L-phenylalanine], the “deprotection of the substrate” value in data set [1] is reported as “complete deprotection”. The “% Conversion” value (in the data set on CBZ-deprotecting enzyme; in data set [2]; in data set [3]) was 100% in each case. `COC(=O)[C@@H]1CCC[C@@H]2SCC[C@H](NC(=O)OCc3ccccc3)C(=O)N21` [Compound A, [4S-(4α,7α, 10aβ)]-Octahydro-5-oxo-4-[[(phenylmethoxy)carbonyl]amino]-7H-pyrido-[2,1-b] [1,3]thiazepine-7-carboxylic acid, methyl ester]: the “% Conversion” value is 100% with CBZ-deprotecting enzyme, 100% in data set [2] and 95% in data set [3]. For the molecule `CC(C)C[C@@H](NC(=O)OCc1ccccc1)C(=O)O` [N-α-CBZ-D-Leucine], the “% Conversion” value in data set [3] came out at 1.2%. For the molecule `O=C(O)[C@H]1CCCN1C(=O)OCc1ccccc1` [N-α-CBZ-D-Proline], the “% Conversion” value in data set [3] worked out at 0%. Same read-out and setting: as for `O=C(N[C@H](Cc1ccccc1)C(=O)O)OCc1ccccc1` [N-α-CBZ-D-phenylalanine], the figure is 0%. The same measure, in the same setting: as for `O=C(N[C@H](Cc1ccc(O)cc1)C(=O)O)OCc1ccccc1` [N-α-CBZ-D-tyrosine], the figure is 1.58%. On the same count and under the same terms, as for `CC(C)C[C@H](NC(=O)OCc1ccccc1)C(=O)O` [N-α-CBZ-L-Leucine], the figure is 100%; as for `NCCCC[C@H](NC(=O)OCc1ccccc1)C(=O)O` [N-α-CBZ-L-Lysine, N-α-CBZ-L-lysine], 52%; as for `O=C(O)[C@@H]1CCCN1C(=O)OCc1ccccc1` [N-α-CBZ-L-Proline], 100%. Take `O=C(N[C@@H](Cc1ccc(O)cc1)C(=O)O)OCc1ccccc1` [N-α-CBZ-L-tyrosine]: the “% Conversion” value in data set [3] came out at 100%. Still for that read-out and setting: as for `O=C(NCCCC[C@H](NC(=O)OCc1ccccc1)C(=O)O)OCc1ccccc1` [N-α-ε-(CBZ)2-L-Lysine], the figure is 24%. Still for that read-out and setting: as for `N[C@H](CCCCNC(=O)OCc1ccccc1)C(=O)O` [N-ε-CBZ-D-Lysine], the figure is 7%; as for O-α-CBZ-L-tyrosine, 100%.

B1: CBZ-deprotecting enzyme: enzyme purified from Sphingomonas paucimobilis ATCC 202027 that removes CBZ from protected amines and alcohols; SEQ ID NO:2 (protein, listed as Sphingomonas paucimobilis)
chain: MVQPTPTPQSELPGLIARDMEGLMTLYRDLHANPELSLQEVNTAAKLAKRLKAMKFDVTEKVGGTGVVAVMKNGSGPVLLIRADMDGLPVVEQTGLDFASKVRTKTPEGVETGVMHACGHDTHMTAFIETAKLLSSQKDKWKGTLVMILQPAEEVGKGARDMLEDGLYTRFPRPTHAIAFHDAANLQAGVVGYTPGYALANVDSVDIVVKGLGGHGAYPQTTRDPIVLGSRIVTSLQTLVSREQDPQDPAVVTVGSFQAGAKHNIIPDQALLLLTVRSYSDETRAKLIKGIERIARGEAIAAGVPDDKMPVVSVKDEFTPSTYNPPEFAEQMGALLKGHFAEGRVVKTPAVMGGEDFGRFYRADKSINSFIFWVGGVPADKMAAAQAGQITLPSLHSPFWAPEADKVIATASEAMTVLAMDILKKD
With B1, the specific activity with CBZ-deprotecting enzyme (purified enzyme after S-200 gel filtration, CBZ-L-phenylalanine as substrate) amounted to 13.9 units/mg protein.
